Here are results for 23 compounds from patent US12365695B2, “Fused ring heteroaryl compounds as RIPK1 inhibitors” (BiSiChem Co., Ltd., priority 2019, dated 2025).

A word on the IC50: it is the concentration that gives 50% inhibition.

The assay relates to HT-29 cells. As to the kind of experiment: Cell-based necroptosis assay for RIPK1 activity (cell viability, CCK-8). The settings on record: HT29 (human colon cancer), Z-VAD-FMK 20 μM, human TNFα 10 ng/ml, SM-164 100 nM, 24 h, read-out: Necroptosis inhibition (IC50). Here is the method: Human colon carcinoma cell HT-29 (KCLB 30038), BV2 mouse microglial cell (cell was a kind gift from Dr. Nak-Yun Sung, Senior researcher at Korea Prime Pharmacy CO., LTD.) and human microglial cell HMC3 (ATCC® CRL-3304™). HT-29 cell was grown in Roswell Park Memorial Institute (RPMI) 1640, BV2 cell was grown in Dulbecco's Modified Eagle's Medium (DMEM) and HMC3 cell was grown in Minimum Essential Media Eagle (MEM) supplemented with 10% fetal bovine serum and 1% mixture of penicillin and streptomycin (Gibco). Cells were maintained at 37° C. in a humidified 5% CO2 atmosphere.
To measure the activity of RIPK1 inhibitor in necroptotic cells, HT-29 cells were treated by control DMSO, human TNFα (Peprotech, Rocky Hill, USA), SM-164 (Biovision, California, USA) and a pan-caspase inhibitor Z-VAD-FMK (Invivogen, San Diego, USA). Cells were pretreated with Z-VAD-FMK 20 μM. After 30 min, human TNFα 10 ng/ml, SM-164 100 nM and RIPK1 Inhibitor (0.0001, 0.001, 0.01, 0.02, 0.05, 0.1, 1, 10 uM) were treated for 24 h. Cell viability was measured by Cell Counting Kit 8 (CCK-8) (Dong-in, Seoul, Korea).
Turning to `O=C1Nc2ccccc2OC[C@@H]1NC(=O)n1cc(Cc2ccccc2)cn1` [Example 1, (S)-4-benzyl-N-(4-oxo-2,3,4,5-tetrahydrobenzo[b][1,4]oxazepin-3-yl)-1H-pyrazole-1-carboxamide], the IC50 was under 100 nM. Regarding `O=C1Nc2ccccc2OC[C@@H]1NC(=O)n1cc(Cc2cccc(F)c2)cn1` [Example 2, (S)-4-(3-fluorobenzyl)-N-(4-oxo-2,3,4,5-tetrahydrobenzo[b][1,4]oxazepin-3-yl)-11H-pyrazole-1-carboxamide], the IC50 is under 100 nM.

For `CN1C(=O)[C@@H](NC(=O)n2cc(Cc3cccc(F)c3)cn2)COc2ccccc21` [Example 3, (S)-4-(3-fluorobenzyl)-N-(5-methyl-4-oxo-2,3,4,5-tetrahydrobenzo[b][1,4]oxazepin-3-yl)-4-1H-pyrazole-1-carboxamide], the IC50 is under 10 nM. In the case of `CN1C(=O)[C@@H](NC(=O)n2cc(Cc3cccc(Cl)c3)cn2)COc2ccccc21` [Example 4, (S)-4-(3-chlorobenzyl)-N-(5-methyl-4-oxo-2,3,4,5-tetrahydrobenzo[b][1,4]oxazepin-3-yl)-1H-pyrazole-1-carboxamide] it was under 10 nM. For `Cc1cccc(Cc2cnn(C(=O)N[C@H]3COc4ccccc4N(C)C3=O)c2)c1` [Example 5, (S)—N-(5-methyl-4-oxo-2,3,4,5-tetrahydrobenzo[b][1,4]oxazepin-3-yl)-4-(3-methylbenzyl)-1H-pyrazole-1-carboxamide], the half-inhibitory concentration (IC50) is under 10 nM. For `CN1C(=O)[C@@H](NC(=O)n2cc(Cc3cccc(C(F)(F)F)c3)cn2)COc2ccccc21` [Example 6, (S)—N-(5-methyl-4-oxo-2,3,4,5-tetrahydrobenzo[b][1,4]oxazepin-3-yl)-4-(3-(trifluoromethyl)benzyl)-1H-pyrazole-1-carboxamide] the value was under 100 nM.

For `CN1C(=O)[C@@H](NC(=O)n2cc(Cc3cccc(C#N)c3)cn2)COc2ccccc21` [Example 7, (S)-4-(3-cyanobenzyl)-N-(5-methyl-4-oxo-2,3,4,5-tetrahydrobenzo[b][1,4]oxazepin-3-yl)-1H-pyrazole-1-carboxamide], the half-maximal inhibitory concentration (IC50) is under 10 nM. In the case of `CN1C(=O)[C@@H](NC(=O)n2cc(Cc3ccc(F)cc3)cn2)COc2ccccc21` [Example 8, (S)-4-(4-fluorobenzyl)-N-(5-methyl-4-oxo-2,3,4,5-tetrahydrobenzo[b][1,4]oxazepin-3-yl)-1H-pyrazole-1-carboxamide], the IC50 was under 100 nM.

Turning to `CN1C(=O)[C@@H](NC(=O)n2cc(Cc3ccc(C#N)cc3)cn2)COc2ccccc21` [Example 9, (S)-4-(4-cyanobenzyl)-N-(5-methyl-4-oxo-2,3,4,5-tetrahydrobenzo[b][1,4]oxazepin-3-yl)-1H-pyrazole-1-carboxamide], the IC50 was under 100 nM. With `O=C1Nc2c(F)cccc2OC[C@@H]1NC(=O)n1cc(Cc2ccccc2)cn1` [Example 10, (S)-4-benzyl-N-(6-fluoro-4-oxo-2,3,4,5-tetrahydrobenzo[b][1,4]oxazepin-3-yl)-1H-pyrazole-1-carboxamide], the IC50 was under 100 nM. In the case of `O=C1Nc2c(F)cccc2OC[C@@H]1NC(=O)n1cc(Cc2cccc(F)c2)cn1` [Example 11, (S)—N-(6-fluoro-4-oxo-2,3,4,5-tetrahydrobenzo[b][1,4]oxazepin-3-yl)-4-(3-fluorobenzyl)-1H-pyrazole-1 carboxamide], the IC50 was under 100 nM. In the case of `CN1C(=O)[C@@H](NC(=O)n2cc(Cc3ccccc3)cn2)COc2cccc(F)c21` [Example 12, (S)-4-benzyl-N-(6-fluoro-5-methyl-4-oxo-2,3,4,5-tetrahydrobenzo[b][1,4]oxazepin-3-yl)-1H-pyrazole-1-carboxamide] it was under 10 nM; in that of `CN1C(=O)[C@@H](NC(=O)n2cc(Cc3cccc(F)c3)cn2)COc2cccc(F)c21` [Example 13, (S)—N-(6-fluoro-5-methyl-4-oxo-2,3,4,5-tetrahydrobenzo[b][1,4]oxazepin-3-yl)-4-(3-fluorobenzyl)-1H-pyrazole-1-carboxamide], under 10 nM; in that of `O=C1Nc2c(F)cc(F)cc2OC[C@@H]1NC(=O)n1cc(Cc2ccccc2)cn1` [Example 14, (S)-4-benzyl-N-(6,8-difluoro-4-oxo-2,3,4,5-tetrahydrobenzo[b][1,4]oxazepin-3-yl)-1H-pyrazole-1-carboxamide], under 100 nM. For `O=C1Nc2c(F)cc(F)cc2OC[C@@H]1NC(=O)n1cc(Cc2cccc(F)c2)cn1` [Example 15, (S)—N-(6,8-difluoro-4-oxo-2,3,4,5-tetrahydrobenzo[b][1,4]oxazepin-3-yl)-4-(3-fluorobenzyl)-1H-pyrazole-1-carboxamide], the IC50 is over 100 nM. In the case of `CN1C(=O)[C@@H](NC(=O)n2cc(Cc3ccccc3)cn2)COc2cc(F)cc(F)c21` [Example 16, (S)-4-benzyl-N-(6,8-difluoro-5-methyl-4-oxo-2,3,4,5-tetrahydrobenzo[b][1,4]oxazepin-3-yl)-1H-pyrazole-1-carboxamide] it was under 10 nM; in that of `CN1C(=O)[C@@H](NC(=O)n2cc(Cc3cccc(F)c3)cn2)COc2cc(F)cc(F)c21` [Example 17, (S)—N-(6,8-difluoro-5-methyl-4-oxo-2,3,4,5-tetrahydrobenzo[b][1,4]oxazepin-3-yl)-4-(3-fluorobenzyl)-1H-pyrazole-1-carboxamide], under 10 nM; in that of `COc1ccc2c(c1)OC[C@H](NC(=O)n1cc(Cc3ccccc3)cn1)C(=O)N2C` [Example 18, (S)-4-benzyl-N-(8-methoxy-5-methyl-4-oxo-2,3,4,5-tetrahydrobenzo[b][1,4]oxazepin-3-yl)-1H-pyrazole-1-carboxamide], under 10 nM. In the case of `COc1ccc2c(c1)N(C)C(=O)[C@@H](NC(=O)n1cc(Cc3ccccc3)cn1)CO2` [Example 19, (S)-4-benzyl-N-(7-methoxy-5-methyl-4-oxo-2,3,4,5-tetrahydrobenzo[b][1,4]oxazepin-3-yl)-1H-pyrazole-1-carboxamide] it was under 10 nM. Regarding `COc1ccc2c(c1)N(C)C(=O)[C@@H](NC(=O)n1cc(Cc3cccc(F)c3)cn1)CO2` [Example 20, (S)-4-(3-fluorobenzyl)-N-(7-methoxy-5-methyl-4-oxo-2,3,4,5-tetrahydrobenzo[b][1,4]oxazepin-3-yl)-1H-pyrazole-1-carboxamide], the IC50 is under 10 nM. In the case of `CN1C(=O)[C@@H](NC(=O)n2cc(Cc3cccc(F)c3)cn2)COc2cccnc21` [Example 21, (S)-4-(3-fluorobenzyl)-N-(5-methyl-4-oxo-2,3,4,5-tetrahydropyrido[3,2-b][1,4]oxazepin-3-yl)-1H-pyrazole-1-carboxamide], the IC50 is under 10 nM. In the case of `CN1C(=O)[C@@H](NC(=O)n2cc(Cc3ccccc3)cn2)COc2ccncc21` [Example 22, (S)-4-benzyl-N-(5-methyl-4-oxo-2,3,4,5-tetrahydropyrido[4,3-b][1,4]oxazepin-3-yl)-1H-pyrazole-1-carboxamide] it was under 10 nM; in that of `CN1C(=O)[C@@H](NC(=O)n2cc(Cc3cccc(F)c3)cn2)COc2ccncc21` [Example 23, (S)-4-(3-fluorobenzyl)-N-(5-methyl-4-oxo-2,3,4,5-tetrahydropyrido[4,3-b][1,4]oxazepin-3-yl)-1H-pyrazole-1-carboxamide], under 10 nM.
